Marks after values point to notes of the source that are not given here. No end group written: not given here.
Experiments:
Format in all cases: in vivo, human
Patients with BPH [1] = test: Example One: incidence of acute urinary retention after intraprostatic injection, double-blind, BPH patients; conditions: patients with BPH who received intraprostatic SEQ ID NO: 66 2.5 mg at least once (initial or subsequent treatment); after 2 years; followed 1 to 6 years; p < .05 vs control
Source text: Patients with BPH were given an intraprostatic injection of either a) SEQ ID NO. 66 (Ile-Asp-Gln-Gln-Val-Leu-Ser-Arg-Ile-Lys-Leu-Glu-Ile-Lys-Arg-Cys-Leu) in phosphate buffered saline pH 7.2 (“PBS”) or b) PBS alone, under double-blind conditions by a urologist in an office setting under ultrasound guidance. Patients were followed for 1 to 6 years with regular physical examinations, laboratory tests, and evaluations of symptoms. Both groups of subjects were subsequently given either 1) no further treatment; 2) conventional oral medications such as alpha blockers or 5-alpha reductase inhibitors; 3) an intraprostatic injection of SEQ ID NO. 66 2.5 mg or 4) more than one of the preceding. The overall incidence of acute urinary retention in all patients who received intraprostatic SEQ ID NO. […] 66 under similar conditions.

Patients with BPH [2] = test: Example Two: acute urinary retention after vehicle injection followed by oral medications or SEQ ID NO. 66; conditions: PBS vehicle injection followed by intraprostatic injection of SEQ ID NO: 66; followed 1 to 6 years
Source text: Patients with BPH were given an intraprostatic injection of PBS pH 7.2 vehicle alone, under double-blind conditions by a urologist in an office setting under ultrasound guidance. Patients were followed for 1 to 6 years with regular physical examinations, laboratory tests, and evaluations of symptoms, and treatments. […] 66 (Ile-Asp-Gln-Gln-Val-Leu-Ser-Arg-Ile-Lys-Leu-Glu-Ile-Lys-Arg-Cys-Leu).

Patients with BPH [3] = test: Example 3: acute urinary retention after vehicle or SEQ ID NO. 66 followed by oral BPH medications; conditions: SEQ ID NO: 66 2.5 mg intraprostatic followed by oral medications; followed 1 to 6 years; p < .02
Method: In this example, patients with BPH were given an intraprostatic injection of PBS pH 7.2 vehicle alone or an injection of SEQ ID NO. 66 (Ile-Asp-Gln-Gln-Val-Leu-Ser-Arg-Ile-Lys-Leu-Glu-Ile-Lys-Arg-Cys-Leu), 2.5 mg in PBS, under double-blind conditions by a urologist in an office setting under ultrasound guidance. Patients were followed for 1 to 6 years with regular physical examinations, laboratory tests, and evaluations of symptoms, and treatments. […] 66 and who subsequently received conventional oral medications used to treat BPH such as the classes of approved medications listed above.

Patients with BPH [4] = test: Example 4: acute urinary retention within 24 months, SEQ ID NO. 66 followed by oral medications or second injection vs vehicle
Method: Patients with BPH were given an intraprostatic injection under double-blind conditions by a urologist in an office setting under ultrasound guidance of either a) SEQ ID NO. 66 (Ile-Asp-Gln-Gln-Val-Leu-Ser-Arg-Ile-Lys-Leu-Glu-Ile-Lys-Arg-Cys-Leu), in phosphate buffered saline pH 7.2 (“PBS”); or b) SEQ ID NO. 66 in phosphate buffered saline pH 7.2 followed by a second injection of SEQ ID NO. 66 2.5 mg one month to 2 years later; or c) PBS vehicle alone followed by conventional oral BPH medications used to treat BPH including alpha blockers such as tamsulosin, terazosin, doxazosin, or 5-alpha reductase inhibitors such as finasteride, dutasteride, or phosphodiesterase type 5 inhibitors (PDE5 inhibitors) such as tadalafil. Patients were followed for 2 years with regular physical examinations, laboratory tests, and evaluations of symptoms. […] 66 followed by conventional medication or by another injection of SEQ ID NO. 66 there were >75% fewer instances of acute urinary retention compared to subjects who were administered only a control injection of vehicle alone.

Patients with BPH [5] = test: Example 5: acute urinary retention, follow-up up to 6 years, SEQ ID NO. 66 followed by oral medications or second injection vs vehicle
Method: Patients with BPH were administered an intraprostatic injection under double-blind conditions by a urologist in an office setting under ultrasound guidance of either a) SEQ ID NO. 66 (Ile-Asp-Gln-Gln-Val-Leu-Ser-Arg-Ile-Lys-Leu-Glu-Ile-Lys-Arg-Cys-Leu), in phosphate buffered saline pH 7.2 (“PBS”), followed by conventional oral BPH medications used to treat BPH including alpha blockers such as tamsulosin, terazosin, doxazosin, or 5-alpha reductase inhibitors such as finasteride, dutasteride, or phosphodiesterase type 5 inhibitors (PDE5 inhibitors) such as tadalafil. Patients were followed for up to 6 years with regular physical examinations, laboratory tests, and evaluations of symptoms; b) SEQ ID NO. 66 in phosphate buffered saline pH 7.2 followed by a second injection of SEQ ID NO. 66 2.5 mg one month to 2 years later; or c) PBS vehicle alone. […] 66 followed by conventional medication or by another injection of SEQ ID NO.

IDQQVLSRIKLEIKRCL [SEQ ID NO: 66]
Incidence of acute urinary retention (Patients with BPH [1]): 1.4%*
Incidence of acute urinary retention (Patients with BPH [2]): 2.1%
Incidence of acute urinary retention (Patients with BPH [3]): 0%*
fewer instances of acute urinary retention compared to vehicle alone (Patients with BPH [4]; SEQ ID NO. 66 followed by conventional medication or another injection of SEQ ID NO. 66, 2 years): > 75%
Incidence of acute urinary retention (<24 months) (Patients with BPH [4]; SEQ ID NO: 66 intraprostatic followed by oral medications or another injection of SEQ ID NO: 66, followed 2 years, p < .03): 0.76%*
fewer instances of acute urinary retention compared to vehicle alone (Patients with BPH [5]; SEQ ID NO. 66 followed by conventional medication or another injection of SEQ ID NO. 66, up to 6 years): > 75%
Incidence of acute urinary retention (Patients with BPH [5]; SEQ ID NO: 66 intraprostatic followed by oral medications or another injection of SEQ ID NO: 66, followed up to 6 years, p < .04): 2%*
